Experiment: xn = mol fraction of the nth substance listed
Conditions: 101 kPa

CCn1cc[n+](C)c1.COCCOCCOS(=O)(=O)[O-] + O
electrical conductivity [S/m]
Conditions	x2 = 0.2	x2 = 0.4	x2 = 0.6	x2 = 0.8
293.2 K	0.19	0.24	0.42	0.82
298.2 K	0.23	–	–	0.99
303.2 K	0.3	0.38	0.63	1.18
308.2 K	0.38	0.47	0.76	1.4
313.2 K	–	0.57	0.9	–
318.2 K	0.56	0.68	1.06	1.87
323.2 K	0.67	0.79	1.22	2.12
328.2 K	0.79	–	1.4	2.39
333.2 K	0.92	1.06	1.58	2.68
338.2 K	–	1.2	–	–
343.2 K	1.2	1.35	1.96	–
348.2 K	–	–	2.17	3.59
353.2 K	1.51	1.68	–	–

CC[n+]1ccn(C)c1.N#C[N-]C#N + O
electrical conductivity [S/m]
Conditions	x2 = 0.2	x2 = 0.4	x2 = 0.6	x2 = 0.8
293.2 K	2.72	3.47	–	–
298.2 K	3.09	3.91	5.06	6.41
303.2 K	3.48	4.4	5.7	7.2
308.2 K	–	4.91	–	8
313.2 K	–	5.43	7.03	–
318.2 K	–	5.97	7.73	9.63
323.2 K	5.25	6.52	8.42	10.5
328.2 K	–	7.08	9.14	11.4
333.2 K	6.22	7.65	9.85	12.2
338.2 K	6.71	–	–	13.1
343.2 K	7.26	8.81	11.3	13.9
348.2 K	7.79	9.42	12	14.8
353.2 K	8.36	10	12.7	15.6

Reference: a compilation of properties of binary mixtures (doi:10.1016/j.jct.2010.03.017)
